Source: patent US11932606B2, “Anti-cancer/anti-fibrosis compounds” (THE REGENTS OF THE UNIVERSITY OF CALIFORNIA, priority 2017, dated 2024)
pIC50: −log10 of the molar value. Like-named read-outs stand apart in the source and are kept apart here.

What was measured:
HIPK2 = HIPK2 (Homo sapiens (Human), UniProt Q9H2X6); assay: HIPK2 enzymatic activity inhibition (Z'-LYTE); format: biochemical
Description: HIPK2 Enzymatic Activity Inhibition: Determination of IC50 Values for Selected Compounds
The half maximal inhibitory concentration (IC50) with respect to HIPK2 inhibition was determined for the compounds of the invention by using Z′-LYTE™ from ThermoFisher Scientific's SelectScreen™ Biochemical Kinase Profiling Service (Waltham, MA). Compounds were screened in 1% DMSO (final) in the well. For 10 point titrations, 3-fold serial dilutions were conducted from the starting concentration. The 2×HIPK2/Ser/Thr 09 mixture was prepared in 50 mM HEPES pH 7.5, 0.01% BRIJ-35, 10 mM MgCl2, 1 mM EGTA.
100 nL of 100× test compound in 100% DMSO, 2.4 uL of kinase buffer (50 mM HEPES pH 7.5, 0.01% BRIJ-35, 10 mM MgCl2, 1 mM EGTA), 5 uL of 2×HIPK2/Ser/Thr 09 mixture, and 2.5 uL of 4×ATP solution were mixed and agitated for 30 seconds. Then the Kinase Reaction was incubated at room temperature for 60 minutes. […] After 30 second of plate shake, the reaction plate was incubated for another 60 min at room temperature. Then the plate was read on a fluorescence plate reader (CLARIOstar, BMG Labtech, Germany) as plate reader and data was analyzed using XLfit from IDBS.

CSNK2A1 (CK2 alpha 1) = CSNK2A1 (CK2 alpha 1) (Homo sapiens (Human), UniProt P68400); assay: CK2 alpha 1 enzymatic activity inhibition (Z'-LYTE); format: biochemical; details: read-out: CK2a IC50
Description: CK2 Alpha 1 Enzymatic Activity Inhibition: Determination of IC50 Values for Selected Compounds
The half maximal inhibitory concentration (IC50) with respect to CK2 alpha 1 inhibition was determined for the compounds of the invention by using Z′-LYTE™ from ThermoFisher Scientific's SelectScreen™ Biochemical Kinase Profiling Service (Waltham, MA). Compounds were screened in 1% DMSO (final) in the well. For 10 point titrations, 3-fold serial dilutions were conducted from the starting concentration. The 2×CSNK2A1 (CK2 alpha 1)/Ser/Thr 11 mixture is prepared in 50 mM HEPES pH 7.5, 0.01% BRIJ-35, 10 mM MgCl2, 1 mM EGTA. The black 384-well plate (Corning Cat. #4514) were used for the assay. 100 nL of 100× test compound in 100% DMSO, 2.4 uL of kinase buffer (50 mM HEPES pH 7.5, 0.01% BRIJ-35, 10 mM MgCl2, 1 mM EGTA), 5 uL of 2×CSNK2A1 (CK2 alpha 1)/Ser/Thr 11 mixture, and 2.5 uL of 4×ATP solution were mixed and agitated for 30 seconds. Then the Kinase Reaction was incubated at room temperature for 60 minutes. The final 10 uL Kinase Reaction consisted of 0.68-25.7 ng CSNK2A1 (CK2 alpha 1) and 2 μM Ser/Thr 11 in 50 mM HEPES pH 7.5, 0.01% BRIJ-35, 10 mM MgCl2, 1 mM EGTA. After the 1 hour Kinase Reaction incubation, 5 uL of a 1:16 dilution of Development Reagent B is added. After 30 second of plate shake, the reaction plate was incubated for another 60 min at room temperature. Then the plate was read on a fluorescence plate reader (CLARIOstar, BMG Labtech, Germany) and data was analyzed using XLfit from IDBS. The dose response curve was curve fit to model number 205 (sigmoidal dose-response model).

CSNK2A1 (CK2 alpha 1), sequence (P68400 whole entry): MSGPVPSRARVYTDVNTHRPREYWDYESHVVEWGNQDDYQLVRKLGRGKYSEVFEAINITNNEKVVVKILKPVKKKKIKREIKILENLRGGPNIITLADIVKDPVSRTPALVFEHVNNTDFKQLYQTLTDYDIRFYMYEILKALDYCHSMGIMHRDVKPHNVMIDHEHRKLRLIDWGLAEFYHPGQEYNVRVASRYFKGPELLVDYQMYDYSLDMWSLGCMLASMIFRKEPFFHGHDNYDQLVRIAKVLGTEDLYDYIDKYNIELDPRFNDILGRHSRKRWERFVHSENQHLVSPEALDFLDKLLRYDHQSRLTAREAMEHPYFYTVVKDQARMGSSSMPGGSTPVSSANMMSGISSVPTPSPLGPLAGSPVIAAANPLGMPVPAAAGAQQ
HIPK2, sequence (Q9H2X6 whole entry): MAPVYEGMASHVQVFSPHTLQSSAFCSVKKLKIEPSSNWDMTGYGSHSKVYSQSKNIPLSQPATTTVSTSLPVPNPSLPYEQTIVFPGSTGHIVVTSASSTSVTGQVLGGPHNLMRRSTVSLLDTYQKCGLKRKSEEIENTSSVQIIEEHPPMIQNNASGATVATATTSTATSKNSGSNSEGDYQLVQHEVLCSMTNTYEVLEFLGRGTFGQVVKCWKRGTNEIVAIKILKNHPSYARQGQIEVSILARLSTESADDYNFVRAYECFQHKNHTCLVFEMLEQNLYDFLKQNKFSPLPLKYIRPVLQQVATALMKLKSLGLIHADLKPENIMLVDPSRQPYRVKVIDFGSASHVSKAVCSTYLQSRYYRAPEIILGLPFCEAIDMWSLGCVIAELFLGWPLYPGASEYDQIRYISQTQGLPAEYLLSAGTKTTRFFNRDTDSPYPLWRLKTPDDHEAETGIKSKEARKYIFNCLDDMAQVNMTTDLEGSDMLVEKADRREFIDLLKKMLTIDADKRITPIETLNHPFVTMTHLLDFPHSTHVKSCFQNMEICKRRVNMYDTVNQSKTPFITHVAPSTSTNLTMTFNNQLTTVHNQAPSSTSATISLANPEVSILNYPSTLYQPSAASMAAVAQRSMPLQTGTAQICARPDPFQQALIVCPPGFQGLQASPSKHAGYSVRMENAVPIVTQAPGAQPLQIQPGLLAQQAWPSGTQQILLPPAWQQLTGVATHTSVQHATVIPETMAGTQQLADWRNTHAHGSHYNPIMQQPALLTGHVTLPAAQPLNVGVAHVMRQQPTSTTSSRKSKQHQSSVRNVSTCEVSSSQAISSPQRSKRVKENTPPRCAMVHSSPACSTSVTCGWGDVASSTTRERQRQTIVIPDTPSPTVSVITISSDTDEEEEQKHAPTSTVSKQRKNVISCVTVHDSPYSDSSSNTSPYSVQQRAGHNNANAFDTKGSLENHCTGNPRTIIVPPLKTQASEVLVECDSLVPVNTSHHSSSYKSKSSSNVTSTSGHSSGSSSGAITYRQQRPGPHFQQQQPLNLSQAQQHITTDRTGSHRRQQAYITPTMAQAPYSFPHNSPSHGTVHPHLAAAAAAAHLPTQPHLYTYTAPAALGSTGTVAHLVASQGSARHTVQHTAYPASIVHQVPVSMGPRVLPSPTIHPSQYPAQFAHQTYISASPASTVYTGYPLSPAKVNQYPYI

| pIC50 (HIPK2; read-out: HIPK2 IC50) | SMILES | pIC50 (HIPK2) | pIC50 (CSNK2A1 (CK2 alpha 1)) |
| --- | --- | --- | --- |
| – | O=C(O)c1ccc2c(c1)cc(Cl)c1ccncc12 [Compound 3, Sodium 5-chlorobenzo[h]isoquinoline-8-carboxylate] | 6.00 to 6.52 | > 6.52 |
| – | O=C(O)c1ccc2c(c1)cc(Nc1cccc(Cl)c1)c1ccncc12 [Compound 4, Sodium 5-((3-chlorophenyl)amino)benzo[h]isoquinoline-8-carboxylate] | 6.00 to 6.52 | > 6.52 |
| – | CNc1nccc2c(Br)cc3cc(C(=O)O)ccc3c12 [Compound 32, Sodium 5-bromo-1-(methylamino)benzo[h]isoquinoline-8-carboxylate] | 5.30 to 6.00 | 6.00 to 6.52 |
| – | CC[C@H](C)Nc1cc2cc(C(=O)O)ccc2c2cnccc12 [Compound 19, (S)-5-(sec-Butylamino)benzo[h]isoquinoline-8-carboxylic acid] | 5.30 to 6.00 | > 6.52 |
| < 5.30 | N[C@@H]1CCCN(c2cc3cc(C(=O)O)ccc3c3cnccc23)C1 [Compound 14, (R)-5-(3-Aminopiperidin-1-yl)benzo[h]isoquinoline-8-carboxylic acid] | – | > 6.52 |
| – | O=C(O)c1ccc2c(c1)cc(Br)c1ccnc(NC3CC3)c12 [Compound 31, Sodium 5-bromo-1-(cyclopropylamino)benzo[h]isoquinoline-8-carboxylate] | 5.30 to 6.00 | 5.30 to 6.00 |
| – | Cc1cc2cc(C(=O)O)ccc2c2cnccc12 [Compound 9, Sodium 5-methylbenzo[h]isoquinoline-8-carboxylate] | 6.00 to 6.52 | > 6.52 |
| – | O=C(O)c1ccc2c(c1)cc(-c1ccc(Cl)cc1)c1ccncc12 [Compound 6, Sodium 5-(4-chlorophenyl)benzo[h]isoquinoline-8-carboxylate] | 5.30 to 6.00 | 6.00 to 6.52 |
| – | NC(=O)c1ccc2c(c1)cc(Br)c1ccnc(N)c12 [Compound 33, 1-Amino-5-bromobenzo[h]isoquinoline-8-carboxamide] | 6.00 to 6.52 | 5.30 to 6.00 |
| – | Nc1ccc(-c2cc3cc(C(=O)O)ccc3c3cnccc23)cn1 [Compound 10, Sodium 5-(6-aminopyridin-3-yl)benzo[h]isoquinoline-8-carboxylate] | 6.00 to 6.52 | > 6.52 |
| > 6.52 | O=C(O)c1ccc2c(c1)cc(Br)c1ccncc12 [Compound 1, Sodium 5-bromobenzo[h]isoquinoline-8-carboxylate] | – | > 6.52 |
| – | CC(C)CNc1cc2cc(C(=O)O)ccc2c2cnccc12 [Compound 16] | – | > 6.52 |
| – | O=C(O)c1ccc2c(c1)cc(Nc1ccc(Cl)cc1)c1ccncc12 [Compound 5, Sodium 5-((4-chlorophenyl)amino)benzo[h]isoquinoline-8-carboxylate] | 6.00 to 6.52 | > 6.52 |
| – | N#Cc1cc2cc(C(=O)O)ccc2c2cnccc12 [Compound 27, Sodium 5-cyanobenzo[h]isoquinoline-8-carboxylate] | 6.00 to 6.52 | > 6.52 |
| – | CC(C)Nc1cc2cc(C(=O)O)ccc2c2cnccc12 [Compound 21, Sodium 5-(isopropylamino)benzo[h]isoquinoline-8-carboxylate] | 6.00 to 6.52 | > 6.52 |
| < 5.30 | O=C(O)c1ccc2c(c1)cc(Br)c1cc(Cl)ncc12 [Compound 24, Sodium 5-bromo-3-chlorobenzo[h]isoquinoline-8-carboxylate] | – | 5.30 to 6.00 |
| – | O=C(O)c1ccc2c(c1)cc(NC1CCC1)c1ccncc12 [Compound 18, Sodium 5-(cyclobutylamino)benzo[h]isoquinoline-8-carboxylate] | 6.00 to 6.52 | > 6.52 |

| pIC50 (HIPK2; read-out: HIPK2 IC50) | SMILES | pIC50 (HIPK2) | pIC50 (CSNK2A1 (CK2 alpha 1)) |
| --- | --- | --- | --- |
| – | O=C(O)c1ccc2c(c1)cc(-c1ccncc1)c1ccncc12 [Compound 8, Sodium 5-(pyridin-4-yl)benzo[h]isoquinoline-8-carboxylate] | 5.30 to 6.00 | > 6.52 |
| – | COc1nccc2c(Br)cc3cc(C(=O)O)ccc3c12 [Compound 34, Sodium 5-bromo-1-methoxybenzo[h]isoquinoline-8-carboxylate] | 5.30 to 6.00 | 6.00 to 6.52 |
| – | O=C(O)c1ccc2c(c1)cc(C1CC1)c1ccncc12 [Compound 28, Sodium 5-cyclopropylbenzo[h]isoquinoline-8-carboxylate] | 6.00 to 6.52 | > 6.52 |
| > 6.52 | Nc1nccc2cc(Br)c3cc(C(=O)O)ccc3c12 [Compound 35, Sodium 1-amino-6-bromobenzo[h]isoquinoline-8-carboxylate] | – | 6.00 to 6.52 |
| – | CN(C)c1nccc2c(Br)cc3cc(C(=O)O)ccc3c12 [Compound 30, Sodium 5-bromo-1-(dimethylamino)benzo[h]isoquinoline-8-carboxylate] | 5.30 to 6.00 | 5.30 to 6.00 |
| – | O=C(O)c1ccc2c(c1)cc(NC1CCCCC1)c1ccncc12 [Compound 12, Sodium 5-(cyclohexylamino)benzo[h]isoquinoline-8-carboxylate] | 6.00 to 6.52 | > 6.52 |
| – | O=C(O)c1ccc2c(ccc3ccncc32)c1 [Compound 2, Sodium benzo[h]isoquinoline-8-carboxylate] | 5.30 to 6.00 | > 6.52 |
| – | O=C(O)c1ccc2c(c1)cc(N[C@@H]1CCCNC1)c1ccncc12 [Compound 13, (R)-5-(Piperidin-3-ylamino)benzo[h]isoquinoline-8-carboxylic acid] | 5.30 to 6.00 | 5.30 to 6.00 |
| – | O=C(O)c1ccc2c(c1)cc(-c1cccnc1)c1ccncc12 [Compound 7, Sodium 5-(pyridin-3-yl)benzo[h]isoquinoline-8-carboxylate] | 5.30 to 6.00 | > 6.52 |
| – | O=C(O)c1ccc2c(ccc3ccnc(Cl)c32)c1 [Compound 25, Sodium 1-chlorobenzo[h]isoquinoline-8-carboxylate] | 5.30 to 6.00 | > 6.52 |
| > 6.52 | CC[C@@H](C)Nc1cc2cc(C(=O)O)ccc2c2cnccc12 [Compound 22, Sodium (R)-5-(sec-butylamino)benzo[h]isoquinoline-8-carboxylate] | – | > 6.52 |
| – | O=C(O)c1ccc2c(c1)cc([N+](=O)[O-])c1ccncc12 [Compound 26, Sodium 5-nitrobenzo[h]isoquinoline-8-carboxylate] | 6.00 to 6.52 | > 6.52 |
| > 6.52 | O=C(O)c1ccc2c(c1)cc(NC1CC1)c1ccncc12 [Compound 17, Sodium 5-(cyclopropylamino)benzo[h]isoquinoline-8-carboxylate] | – | > 6.52 |
| – | O=C(O)c1ccc2c(c1)cc(Br)c1ccnc(Cl)c12 [Compound 23, Sodium 5-bromo-1-chlorobenzo[h]isoquinoline-8-carboxylate] | 6.00 to 6.52 | > 6.52 |
| – | O=C(O)c1ccc2c(c1)cc(N1CCCCC1)c1ccncc12 [Compound 20, Sodium 5-(piperidin-1-yl)benzo[h]isoquinoline-8-carboxylate] | 6.00 to 6.52 | > 6.52 |
| – | O=C(O)c1ccc2c(c1)cc(-c1cc[nH]n1)c1ccncc12 [Compound 11, Sodium 5-(1H-pyrazol-3-yl)benzo[h]isoquinoline-8-carboxylate] | 5.30 to 6.00 | > 6.52 |
| – | O=C(O)c1ccc2c(c1)cc(NC1CCCC1)c1ccncc12 [Compound 15, Sodium 5-(cyclopentylamino)benzo[h]isoquinoline-8-carboxylate] | 6.00 to 6.52 | > 6.52 |
